According to EP2551257A1, “Co-crystals of agomelatine with co-crystal-formers” (Laboratorios del. Dr. Esteve, S.A., priority 2011, dated 2013):

Experiments:
[1] = Intrinsic Dissolution Rate (IDR) test, USP apparatus 2 (paddles); format: physicochemical; details: for Ratio: IDR of co-crystal relative to agomelatine; for IDR: 37°C, 100 rpm, 2 hours, calculated from slope of straight line
From the text: The aim of this study was to measure intrinsic dissolution rate (IDR) of some crystalline forms of the present invention in order to compare them with the IDR of the agomelatine. Intrinsic dissolution rate is defined as the dissolution rate of pure substance under the condition of constant surface area.
Figures 20 and 21 show the results of intrinsic dissolution rate performed with co-crystals obtained in examples 4 and 5. The IDR behaviour of agomelatine and the co-crystal of agomelatine - gentisic acid (1:1), agomelatine - citric acid (1:1) from the present invention was tested in USP apparatus 2 (paddles) at 37°C and 100 rpm with 2 hours in a solution of 0,1 N HCl (figure 20) and 2 hours in a buffer solution at pH 6.8 (figure 21). The intrinsic dissolution rate was calculated from the slope of the straight line obtained.

[2] = cited from earlier work
[3] = test system: α, β adrenergic, histaminergic, cholinergic, dopaminergic and benzodiazepine receptors; details: cited from earlier work
monoamine uptake = details: cited from earlier work

## COc1ccc2cccc(CCNC(C)=O)c2c1 [agomelatine - gentisic acid (1:1) co-crystal]
[1]; Media Buffer pH 6.8
  Ratio: 1.70
  IDR: 0.0453 mg/cm^2·s
[1]; Media HCl 0.1M
  Ratio: 1.28
  IDR: 0.0447 mg/cm^2·s

## COc1ccc2cccc(CCNC(C)=O)c2c1 [agomelatine-citric acid (1:1) co-crystal]
[1]; Media Buffer pH 6.8
  Ratio: 1.76
  IDR: 0.0470 mg/cm^2·s
[1]; Media HCl 0.1M
  Ratio: 1.92
  IDR: 0.0670 mg/cm^2·s

## COc1ccc2cccc(CCNC(C)=O)c2c1 [agomelatine, N-[2-(7-methoxynaphthalen-1-yl)ethyl]acetamide]
[2]; 96% ethanol, methanol, methylene chloride, freely soluble
  solubility in various organic solvents: > 100 mg/mL
[2]; purified water, practically insoluble
  solubility in purified water: < 0,1 mg/ml
[3]
  affinity: no affinity
Monoamine uptake
  effect on monoamine uptake: no effect
[1]; Media Buffer pH 6.8
  IDR: 0.0267 mg/cm^2·s
[1]; Media HCl 0.1M
  IDR: 0.0349 mg/cm^2·s
